Experimental data as given in US12673946B2, “Pyrimidin-4(3H)-one derivatives as TRPV4 antagonists” (RaQualia Pharma Inc., priority 2020, dated 2026).

Target: T1, human TRPV4 (Homo sapiens, UniProt Q9HBA0)
T1 construct: host or cells: tetracycline-inducible Flp-In T-REx 293 cells
Test: Hypotonicity-induced Ca2+ influx (Fluo-4, FDSS)
Assay type: cell-based
Method in brief: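 Flp-In T-REx 293 cells with tetracycline-induced human TRPV4, loaded with Fluo-4 for 60 min at 25 °C. Compound added 5 min before hypotonic mannitol/CaCl2 solution. Ca2+ signal recorded for 4.5 min on FDSS.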

[1] = Flp-In T-REx 293 cells expressing human TRPV4, examples listed under heading 'Human IC50<50 nM'
[2] = Flp-In T-REx 293 cells stably expressing human TRPV4, compounds listed by potency bin (<10 nM Tables 96-1/96-2, <3 nM Table 97)

T1 sequence (Q9HBA0 whole entry): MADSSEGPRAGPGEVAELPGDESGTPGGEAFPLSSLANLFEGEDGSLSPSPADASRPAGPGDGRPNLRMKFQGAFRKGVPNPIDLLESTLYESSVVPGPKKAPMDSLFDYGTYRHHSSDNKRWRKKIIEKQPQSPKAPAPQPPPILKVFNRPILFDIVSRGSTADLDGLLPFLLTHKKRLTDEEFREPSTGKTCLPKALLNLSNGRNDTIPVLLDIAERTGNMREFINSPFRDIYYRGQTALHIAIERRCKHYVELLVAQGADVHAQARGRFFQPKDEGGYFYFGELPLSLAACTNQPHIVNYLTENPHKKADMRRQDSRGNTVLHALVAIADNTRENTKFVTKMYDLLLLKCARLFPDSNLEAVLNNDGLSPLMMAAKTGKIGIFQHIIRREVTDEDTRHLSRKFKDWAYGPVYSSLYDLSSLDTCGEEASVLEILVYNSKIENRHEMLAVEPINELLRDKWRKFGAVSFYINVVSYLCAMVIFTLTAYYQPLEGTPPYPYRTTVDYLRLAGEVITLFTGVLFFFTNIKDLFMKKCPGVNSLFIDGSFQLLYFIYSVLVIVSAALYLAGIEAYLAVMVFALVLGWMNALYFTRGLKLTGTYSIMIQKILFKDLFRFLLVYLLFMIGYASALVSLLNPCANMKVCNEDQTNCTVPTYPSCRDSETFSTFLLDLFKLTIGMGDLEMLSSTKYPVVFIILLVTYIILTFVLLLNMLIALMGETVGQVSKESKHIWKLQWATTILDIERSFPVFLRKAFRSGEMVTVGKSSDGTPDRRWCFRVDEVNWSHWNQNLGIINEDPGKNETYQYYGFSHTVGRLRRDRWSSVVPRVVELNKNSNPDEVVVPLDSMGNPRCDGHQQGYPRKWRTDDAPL

| IC50 [1] | IC50 [2] | Structure (SMILES) |
| --- | --- | --- |
| < 50 nM | < 3 nM | CC(C)(C)c1cccc(-c2cccc([C@@H](O)C(=O)N3CCc4nc(C5(c6ccccc6)CC5)[nH]c(=O)c4C3)c2)c1 [44-74] |
| < 50 nM | < 3 nM | CC(C)Cc1cccc(C2(c3nc4c(c(=O)[nH]3)CN(C(=O)[C@H](O)c3cccc(C(F)(F)F)c3)CCC4)CC2)c1 [31-6] |
| < 50 nM | – | CN1CCN(Cc2ccc(-c3cccc(C4(c5nc6c(c(=O)[nH]5)CN(C(=O)[C@H](O)c5cccc(C(F)(F)F)c5)CCC6)CC4)c3)cc2)CC1 [42-37] |
| < 50 nM | < 10 nM | O=C(C(O)c1cccc(-c2cnc3ccccc3c2)c1)N1CCCc2nc(C3(c4ccccc4)CC3)[nH]c(=O)c2C1 (stereo not shown) [49-1] |
| < 50 nM | – | COc1cccc(-c2cccc(C(O)C(=O)N3CCc4nc(C5(c6ccccc6)CC5)[nH]c(=O)c4C3)c2)c1 (stereo not shown) [44-53] |
| < 50 nM | < 10 nM | O=C(Cc1cccc(-c2cccc(OC(F)(F)F)c2)c1)N1CCc2nc(C3(c4cccc(Cl)c4)CC3)[nH]c(=O)c2C1 [45-12] |
| < 50 nM | < 10 nM | CC(C)(C)c1cccc(-c2cccc([C@@H](O)C(=O)N3CCCc4nc(C5(c6cc(-c7ccccc7)cs6)CC5)[nH]c(=O)c4C3)c2)c1 [54-12] |
| < 50 nM | – | O=C(C(O)c1cccc(-c2cccc(Cl)c2)n1)N1CCc2nc(C3(c4ccccc4)CC3)[nH]c(=O)c2C1 (stereo not shown) [48-8] |
| < 50 nM | – | O=C(C(O)c1cncc(-c2cccc(F)c2)c1)N1CCc2nc(C3(c4ccccc4)CC3)[nH]c(=O)c2C1 (stereo not shown) [48-11] |
| < 50 nM | < 10 nM | CC(C)c1cccc(-c2cccc(CC(=O)N3CCCc4nc(C5(c6cccc(Cl)c6)CC5)[nH]c(=O)c4C3)c2)c1 [57-5] |
| < 50 nM | – | O=C(C(O)c1cccc(-c2cncc(C(F)(F)F)c2)c1)N1CCc2nc(C3(c4ccccc4)CC3)[nH]c(=O)c2C1 (stereo not shown) [44-19] |
| < 50 nM | < 10 nM | O=C(C(O)c1cccc(-c2cnc3ccccc3c2)c1)N1CCc2nc(C3(c4ccccc4)CC3)[nH]c(=O)c2C1 (stereo not shown) [44-12] |
| < 50 nM | – | O=C(C(O)c1cccc(-c2cccc(C3CC3)c2)c1)N1CCc2nc(C3(c4ccccc4)CC3)[nH]c(=O)c2C1 (stereo not shown) [44-20] |
| < 50 nM | – | O=C([C@H](O)c1cccc(-c2ccc(OCc3ccccn3)cc2)c1)N1CCc2nc(C3(c4ccccc4)CC3)[nH]c(=O)c2C1 [44-87] |
| < 50 nM | < 3 nM | N#CC1(c2ccc(-c3cccc(C4(c5nc6c(c(=O)[nH]5)CN(C(=O)[C@H](O)c5cccc(Cl)c5)CCC6)CC4)c3)cc2)CC1 [40-15] |
| < 50 nM | < 10 nM | O=C(c1ccccc1)N1CCC(c2cccc(C3(c4nc5c(c(=O)[nH]4)CN(C(=O)[C@H](O)c4cccc(C(F)(F)F)c4)CCC5)CC3)c2)CC1 [31-10] |
| < 50 nM | < 3 nM | CN(Cc1ccc(-c2cccc(C3(c4nc5c(c(=O)[nH]4)CN(C(=O)[C@H](O)c4cccc(C(F)(F)F)c4)CCC5)CC3)c2)cc1)C(=O)NC1CCCCC1 [42-93] |
| < 50 nM | < 10 nM | O=C(C(O)c1cccc(-c2cccc(C(F)(F)F)n2)c1)N1CCc2nc(C3(c4ccccc4)CC3)[nH]c(=O)c2C1 (stereo not shown) [44-4] |
| < 50 nM | < 10 nM | CC(C)(C)c1cccc(-c2cccc(C(F)(F)C(=O)N3CCCc4nc(C5(c6ccccc6)CC5)[nH]c(=O)c4C3)c2)c1 [58-2] |
| < 50 nM | < 10 nM | O=C(c1csc(C2(c3nc4c(c(=O)[nH]3)CN(C(=O)[C@H](O)c3cccc(C(F)(F)F)c3)CCC4)CC2)c1)N(Cc1ccccc1)Cc1ccccc1 [59-12] |
| < 50 nM | < 10 nM | CC(C)(C)c1cccc(-c2cccc(CC(=O)N3CCCc4nc(C5(c6cccc(Cl)c6)CC5)[nH]c(=O)c4C3)c2)c1 [57-6] |
| < 50 nM | < 10 nM | Cc1ccc(-c2cccc([C@@H](O)C(=O)N3CCCc4nc(C5(c6ccccc6)CC5)[nH]c(=O)c4C3)c2)cc1C [49-48] |
| < 50 nM | – | O=C(C(O)c1cncc(-c2ccnc(C(F)(F)F)c2)c1)N1CCc2nc(C3(c4ccccc4)CC3)[nH]c(=O)c2C1 (stereo not shown) [48-7] |
| < 50 nM | < 10 nM | O=C([C@H](O)c1cccc(Cl)c1)N1CCCc2nc(C3(c4cccc(-c5cnn(C6CC6)c5)c4)CC3)[nH]c(=O)c2C1 [40-13] |
| < 50 nM | – | Cc1cc(F)cc(-c2cccc(C(O)C(=O)N3CCc4nc(C5(c6ccccc6)CC5)[nH]c(=O)c4C3)c2)c1 (stereo not shown) [44-35] |
| < 50 nM | < 10 nM | O=C(C(O)c1cccc(-c2cccc(OC(F)(F)F)c2)c1F)N1CCc2nc(C3(c4ccccc4)CC3)[nH]c(=O)c2C1 (stereo not shown) [44-2] |
| < 50 nM | < 10 nM | CN(Cc1ccc(-c2cccc(C3(c4nc5c(c(=O)[nH]4)CN(C(=O)[C@H](O)c4cccc(C(F)(F)F)c4)CCC5)CC3)c2)cc1)C(=O)N1CCCCC1 [42-91] |
| < 50 nM | < 10 nM | CC(C)c1cccc(-c2cccc([C@@H](O)C(=O)N3CCCc4nc(C5(c6cccc(-c7csc8ccccc78)c6)CC5)[nH]c(=O)c4C3)c2)c1 [52-13] |
| < 50 nM | – | CC(C)N(C)C(=O)c1csc(C2(c3nc4c(c(=O)[nH]3)CN(C(=O)[C@H](O)c3cccc(C(F)(F)F)c3)CCC4)CC2)c1 [59-5] |
| < 50 nM | < 10 nM | O=C([C@H](O)c1cccc(-c2cccc(Cl)c2)c1)N1CCCc2nc(C3(c4cccc(-c5csc6ccccc56)c4)CC3)[nH]c(=O)c2C1 [52-11] |

The remaining lines, values behind:

| Structure (SMILES) | IC50 [1] | IC50 [2] |
| --- | --- | --- |
| O=C([C@H](O)c1cccc(C(F)(F)F)c1)N1CCc2nc(C3(c4cccc(Oc5ccccc5)c4)CC3)[nH]c(=O)c2C1 [14-2] | < 50 nM | < 10 nM |
| O=C([C@H](O)c1cccc(Cl)c1)N1CCc2nc(C3(c4cc(Br)cs4)CC3)[nH]c(=O)c2C1 [6-18] | < 50 nM | – |
| C=C(C)c1cccc(C2(c3nc4c(c(=O)[nH]3)CN(C(=O)[C@H](O)c3cccc(C(F)(F)F)c3)CCC4)CC2)c1 [17-1] | < 50 nM | < 3 nM |
| O=C(Cc1cccc(SC(F)(F)F)c1)N1CCCc2nc(C3(c4cccc(Cl)c4)CC3)[nH]c(=O)c2C1 [17-113] | < 50 nM | < 10 nM |
| O=C([C@H](O)c1cccc(Cl)c1)N1CCCc2nc(C3(c4ccnc(Oc5ccccc5)c4)CC3)[nH]c(=O)c2C1 [19-9] | < 50 nM | – |
| CC(C(=O)N1CCCc2nc(C3(c4cccc(F)c4)CC3)[nH]c(=O)c2C1)c1cccc(C(F)(F)F)c1 (stereo not shown) [17-89] | < 50 nM | < 10 nM |
| O=C([C@H](O)c1cccc(Cl)c1)N1CCc2nc(C3(c4cc(Cl)cs4)CC3)[nH]c(=O)c2C1 [15-14] | < 50 nM | – |
| O=C([C@H](O)c1cccc(C(F)(F)F)c1)N1CCCc2nc(C3(c4cccc(-c5nc6ccccc6s5)c4)CC3)[nH]c(=O)c2C1 [17-97] | < 50 nM | < 10 nM |
| O=C(C(O)c1cccc(C(F)(F)F)c1F)N1CCCc2nc(C3(c4ccccc4)CC3)[nH]c(=O)c2C1 (stereo not shown) [17-20] | < 50 nM | < 10 nM |
| CC(C)(O)CCc1csc(C2(c3nc4c(c(=O)[nH]3)CN(C(=O)[C@H](O)c3cccc(C(F)(F)F)c3)CCC4)CC2)c1 [30-12] | < 50 nM | – |
| CC(C)(C)c1ccc(-c2cccc(CC(=O)N3CCCc4nc(C5(c6cccc(Cl)c6)CC5)[nH]c(=O)c4C3)c2)cc1 [17-127] | < 50 nM | < 10 nM |
| O=C(Cc1cccc(-c2cccc(Cl)c2)c1)N1CCc2nc(C3(c4cccc(Cl)c4)CC3)[nH]c(=O)c2C1 [14-114] | < 50 nM | – |
| O=C(Cc1cccc(Oc2ccccc2)c1)N1CCCc2nc(C3(c4ccccc4)CC3)[nH]c(=O)c2C1 [17-144] | < 50 nM | – |
